In brackets after ≈: the same amount, converted by molar mass. Several values for one entry are separate records, joined by “and”; a condition that tells them apart may be missing. Equal entries are not always repeated. Entries after “also recorded” stand apart in the source; their conditions may differ.
Assays:
lymphoid leukemia L1210 [1] = experiment: Intraperitoneal (IP) lymphoid leukemia L1210 transplanted mouse tumor test; assay type: in vivo, murine; conditions: for OD (optimum dose) / ILS (percentage increase in life span) / animals alive per 6 test animals on day of termination / T - C (average weight change of test group minus control): Table VIII; for animals alive per 6 test animals on day of termination: day 30; for T - C (average weight change of test group minus control): day 5
Description: ^(a) Day 1-9 treatment schedule (9 injections)
^(b) Day 1,5,9 treatment schedule (3 injections)
^(c) Day 1 only treatment schedule (1 injection)
^(f) Percentage increase in life span of treated animals [(treated
survival .div. control survival) × 100%] - 100%

ependymoblastoma = experiment: Intracerebral (IC) ependymoblastoma (EM) brain tumor test; assay type: in vivo, murine; conditions: for antitumor activity: IC ependymoblastoma (EM); for OD (optimum dose) / ILS (percentage increase in life span) / animals alive per 6 test animals on day of termination: Table X, IC ependymoblastoma; for OD (optimum dose): QD1-5; for ILS (percentage increase in life span) / animals alive per 6 test animals on day of termination: QD1-5, at OD; for animals alive per 6 test animals on day of termination / survivors (number in parentheses) EM: day 60; for survivors (number in parentheses) EM: per 6 test animals
Description: ^c Ic tumor implantation, ip QD1-5 treatment schedule.
^g Number of animals alive per six test animals on day of termination
of experiment (day 99 for expt 133 and day 60 for expt 136 and 144).
A third IC transplanted mouse tumor model, the ependymoblastoma system, was also studied. This system requires intracerebral implantation of a solid tumor fragment while the IC L1210 and IC P388 systems utilize IC inoculated ascites tumor fluid. All three use IP drug treatment however. […] Cures (survivors from the group of six mice on the last day of the experiment) are indicated. Experiments 136 and 144 were terminated on day 60. Since the number of cures was about the same, the differences in T/C values in these two experiments reflect differences in the life span of the two different sets of control animals. Experiment 133 was terminated on day 99 with a resulting higher activity value.
The hydrophilic dihydroxypropylamino compound (No. 39), which was curative in the IP L1210 and P388 leukemia systems, was active but gave a large spread in ILS values (53-186%). […] Again, its hydrophilic character may present transport problems in this IC tumor system.

[2] = Room temperature water solubility; assay type: physicochemical; conditions: water; Table VII; room temperature, approximate; read-out: Approx. H2O Sol.
Experimental: In the following examples, all melting points are uncorrected and were recorded on a Thomas-Hoover capillary melting point apparatus. Elemental analyses were performed by NIAMDD, NIH, Bethesda, Maryland. Fluoranil, ethyleneimine and 2l -methylethyleneimine were obtained commerically. […] New compounds were identified by nmr and ir spectroscopy. In the tetraamino derivatives, the methylene protons of the aziridine rings usually occurred as a singlet at δ2.0-2.2 in CDCl3 or DMSO-d6. This absorption appeared at δ2.40 (CDCl3) for compound 11. Carbonyl absorption frequencies (nujol mull) occurred in the range 1620-1640 cm^-1 for the tetraamino compounds. Satisfactory elemental analyses (+0.4% of calculated values) are indicated by elemental symbols in Table VII. Room temperature water solubilities were determined by the incremental addition (pipet) of water to a weighed amount of compound with shaking. The solubility values in Table VII must be considered as approximate.

[3] = tested on: P388 lymphocytic leukemia; experiment: Intraperitoneal (IP) lymphocytic leukemia P388 transplanted mouse tumor test; assay type: in vivo, murine; conditions: for OD (optimum dose): IP P388, QD1-9
Description: ^b Ip tumor implantation, ip QD1-9 treatment schedule.
The L1210, P388 and B16 test systems described in Table II utilize intraperitoneal (IP) tumor implantation and IP drug treatment while the Lewis lung system employs subcutaneous tumor implantation and IP treatment.
Aqueous saline solution (0.9%) was used as the drug vehicle. Normally, five doses were employed per experiment with the top dose chosen to produce toxicity. The lower doses were 50% of each preceeding dose.
Consistent with NCI antitumor test protocols, intraperitoneal (IP) administration of the drug was employed with all five tumor systems investigated. Tumor implantation was IP in the systems designated IP leukemia L1210 and P388 as well as B16 melanoma.

B16 melanocarcinoma = experiment: Intraperitoneal B16 melanocarcinoma transplanted mouse tumor test; assay type: in vivo, murine; conditions: for OD (optimum dose) / ILS (percentage increase in life span): Table IX; for OD (optimum dose): B16, QD1-9; for antitumor activity: B16 melanoma; for ILS (percentage increase in life span): B16, QD1-9, at OD
lymphoid leukemia L1210 [4] = experiment: Intracerebral (IC) lymphoid leukemia L1210 test; assay type: in vivo, murine; conditions: for OD (optimum dose) / ILS (percentage increase in life span): Table X; for OD (optimum dose): IC L1210, QD1-9; for ILS (percentage increase in life span): IC L1210, QD1-9, at OD
Description: ^b Ic tumor implantation, ip QD1-9 treatment schedule.
The L1210, P388 and B16 test systems described in Table II utilize intraperitoneal (IP) tumor implantation and IP drug treatment while the Lewis lung system employs subcutaneous tumor implantation and IP treatment. All three CNS tumor models (Table III) use intracerebral (IC) tumor implantation and IP treatment.
Consistent with NCI antitumor test protocols, intraperitoneal (IP) administration of the drug was employed with all five tumor systems investigated. Tumor implantation was IP in the systems designated IP leukemia L1210 and P388 as well as B16 melanoma. Intracerebral (IC) tumor implantation was utilized in the IC L1210 and ependymoblastoma tumor systems.

[5] = L1210 system, Q4D and QD1-9 schedules
[6] = IP L1210, tetraaminobenzoquinone series (Table VIII)
[7] = IP L1210, Day 1 only (1 injection)
[8] = IP L1210, Q4D(1,5,9) (3 injections)
[9] = Table IX, IP P388, QD1-9, at OD

Row | Compound | antitumor activity (lymphoid leukemia L1210 [1]; [5]) | OD (optimum dose) (lymphoid leukemia L1210 [1]; [8]) | ILS (percentage increase in life span) (lymphoid leukemia L1210 [1]; IP L1210, Q4D(1,5,9), at OD) | OD (optimum dose) (lymphoid leukemia L1210 [1]; IP L1210, QD1-9 (9 injections)) | ILS (percentage increase in life span) (lymphoid leukemia L1210 [1]; IP L1210, QD1-9, at OD) | OD (optimum dose) (ependymoblastoma) | solubility [2] [µg/mL] | OD (optimum dose) ([3]; Table IX) | ILS (percentage increase in life span) [3, 9] | OD (optimum dose) (B16 melanocarcinoma) | ILS (percentage increase in life span) (ependymoblastoma) | ILS (percentage increase in life span) (B16 melanocarcinoma) | further results
1 | CCSC1=C(N2CC2)C(=O)C(SCC)=C(N2CC2)C1=O [Compound 5] | the activity was not reproducible |  |  |  |  |  |  |  |  |  |  |  | activity (%ILS) (lymphoid leukemia L1210 [1]; IP L1210, Q4D schedule): 30%
2 | CCOC(=O)NC1=C(NCCCl)C(=O)C(NC(=O)OCC)=C(NCCCl)C1=O [Compound 12] | activity was abolished |  |  |  |  |  |  |  |  |  |  |  | 
3 | CCCCNC1=C(N2CC2)C(=O)C(NCCCC)=C(N2CC2)C1=O [Compound 37] |  | 12.5 mg/kg/injection and 8.2 mg/kg/injection | 44% and 25% | 10.0 mg/kg/injection and 5.0 mg/kg/injection | 36% and 30% | 6.0 mg/kg/injection and 3.0 mg/kg/injection | < 100 | 5.0 mg/kg/injection and 10.0 mg/kg/injection | 64% and 49% | 10.0 mg/kg/injection and 5.0 mg/kg/injection |  |  | antitumor activity (lymphoid leukemia L1210 [1]; [6]): significant reduction in activity; OD (optimum dose) (lymphoid leukemia L1210 [1]; [7]): 10.0 mg/kg/injection; ILS (percentage increase in life span) (lymphoid leukemia L1210 [1]; IP L1210, Day 1 only, at OD): 11% and 5%; antitumor activity (ependymoblastoma): has activity
4 | CNC1=C(N2CC2)C(=O)C(NC)=C(N2CC2)C1=O [Compound 34] |  | 0.8 mg/kg/injection and 0.4 mg/kg/injection |  | 0.2 mg/kg/injection |  | 0.2 mg/kg/injection and 0.4 mg/kg/injection | < 100 | 0.2 mg/kg/injection and 0.1 mg/kg/injection | 95% and 69% |  | 219% and 218% | 39% and 29% | OD (optimum dose) (lymphoid leukemia L1210 [1]; [7]): 0.7 mg/kg/injection; animals alive per 6 test animals on day of termination (lymphoid leukemia L1210 [1]; IP L1210, QD1-9, at OD): 1; antitumor activity (ependymoblastoma): among the most active materials; also recorded: highly active; animals alive per 6 test animals on day of termination (ependymoblastoma): 5 and 4; survivors (number in parentheses) EM (ependymoblastoma; Table XI): 5; antitumor activity (lymphoid leukemia L1210 [4]; IC L1210): most active; also recorded: significant activity; OD (optimum dose) (lymphoid leukemia L1210 [4]): 0.4 mg/kg/injection and 0.2 mg/kg/injection; ILS (percentage increase in life span) (lymphoid leukemia L1210 [4]): 68% and 60%; ILS (%) IC L1210 (lymphoid leukemia L1210 [4]; Table XI, outstanding activity): 68%; antitumor activity (B16 melanocarcinoma): approached minimal reproducible activity
5 | CC(=O)NC1=C(N2CC2(C)C)C(=O)C(NC(C)=O)=C(N2CC2(C)C)C1=O [Compound 21] | abolished activity |  |  |  |  |  |  |  |  |  |  |  | 
6 | O=C1C(F)=C(N2CC2)C(=O)C(N2CCOCC2)=C1N1CC1 [Compound 31, 2,5-diaziridinyl-3-fluoro-5-morpholino-1,4-benzoquinone] |  |  |  |  |  | 0.8 mg/kg/injection and 1.5 mg/kg/injection | 2000 (≈ 6820 µM) | 3.0 mg/kg/injection and 6.0 mg/kg/injection | 57% and 54% | 0.7 mg/kg/injection | 49% and 40% | 18% and 9% | antitumor activity ([3]; IP P388): active
7 | O=C1C(N2CCCCC2)=C(N2CC2)C(=O)C(N2CCCCC2)=C1N1CC1 [Compound 44] |  |  | 26% and 22% | 10.0 mg/kg/injection | 28% |  | < 100 | 5.0 mg/kg/injection and 10.0 mg/kg/injection | 46% and 77% | 5.0 mg/kg/injection and 2.5 mg/kg/injection | 68% and 46% |  | ILS (percentage increase in life span) (lymphoid leukemia L1210 [1]; IP L1210, Day 1 only, at OD): 16% and 8%; T - C (average weight change of test group minus control) (lymphoid leukemia L1210 [1]; IP L1210, QD1-9, at OD): -2.2 grams
8 | CNC1=C(N2CC2C)C(=O)C(NC)=C(N2CC2C)C1=O (centres unmarked) [Compound 26] |  | 12.5 mg/kg/injection | 93% and 52% | 5.0 mg/kg/injection | 69% and 37% | 10.0 mg/kg/injection and 5.0 mg/kg/injection | < 100 |  |  | 5.0 mg/kg/injection |  | 70% and 48% | OD (optimum dose) (lymphoid leukemia L1210 [1]; [7]): 5.0 mg/kg/injection and 10.0 mg/kg/injection; ILS (percentage increase in life span) (lymphoid leukemia L1210 [1]; IP L1210, Day 1 only, at OD): 42% and 39%; antitumor activity (ependymoblastoma): highly active; animals alive per 6 test animals on day of termination (ependymoblastoma): 1; ILS (%) EM (ependymoblastoma; Table XI, outstanding activity): 294%; survivors (number in parentheses) EM (ependymoblastoma; Table XI): 1; OD (optimum dose) (lymphoid leukemia L1210 [4]): 5.0 mg/kg/injection and 10.0 mg/kg/injection; ILS (percentage increase in life span) (lymphoid leukemia L1210 [4]): 39% and 25%; antitumor activity (B16 melanocarcinoma): active; ILS (%) B16 (B16 melanocarcinoma; Table XI, outstanding activity): 70%
9 | CCOC(=O)NC1=C(N2CC2(C)C)C(=O)C(NC(=O)OCC)=C(N2CC2(C)C)C1=O [Compound 11] | abolished activity |  |  |  |  |  |  |  |  |  |  |  | 
10 | CCCSC1=C(N2CC2)C(=O)C(SCCC)=C(N2CC2)C1=O [Compound 6] | inactive |  |  |  |  |  |  |  |  |  |  |  | 
11 | CCCNC1=C(N2CC2)C(=O)C(NCCC)=C(N2CC2)C1=O [Compound 36] |  | 6.2 mg/kg/injection | 28% and 25% | 6.2 mg/kg/injection | 48% and 43% | 10.0 mg/kg/injection and 5.0 mg/kg/injection | < 100 | 6.0 mg/kg/injection | 151% and 108% | 5.0 mg/kg/injection | 259% and 143% | 36% and 32% | antitumor activity (lymphoid leukemia L1210 [1]; [6]): significant reduction in activity; antitumor activity (ependymoblastoma): highly active; also recorded: still very active; also recorded: most active; animals alive per 6 test animals on day of termination (ependymoblastoma): 2 and 1; survivors (number in parentheses) EM (ependymoblastoma; Table XI): 2; animals alive per 6 test animals on day of termination ([3]; Table IX, IP P388, QD1-9, at OD, day 30): 2; survivors (number in parentheses) P388 ([3]; Table XI, per 6 test animals, day 30): 2
12 | O=C1C(N2CC2)=C(N2CCCC(O)C2)C(=O)C(N2CC2)=C1N1CCCC(O)C1 (centres unmarked) [Compound 45] |  | 6.0 mg/kg/injection and 4.0 mg/kg/injection | 104% and 84% | 3.0 mg/kg/injection | 59% and 44% |  | 1000 (≈ 2570 µM) | 1.0 mg/kg/injection | 95% and 78% | 1.0 mg/kg/injection | 64% and 48% | 40% and 37% | animals alive per 6 test animals on day of termination (lymphoid leukemia L1210 [1]; IP L1210, Q4D(1,5,9), at OD): 2; antitumor activity (B16 melanocarcinoma): approached minimal reproducible activity
13 | CCOC(=O)NC1=C(N2CC2C)C(=O)C(NC(=O)OCC)=C(N2CC2C)C1=O (centres unmarked) [Compound 10] | abolished activity |  |  |  |  |  |  |  |  |  |  |  | 
14 | O=C1C(N2CCCC2)=C(N2CC2)C(=O)C(N2CCCC2)=C1N1CC1 [Compound 43, 2,5-Diaziridinyl-3,6-dipyrrolidino-1,4-benzoquinone] |  | 6.2 mg/kg/injection | 43% | 2.0 mg/kg/injection |  | 1.6 mg/kg/injection and 3.1 mg/kg/injection | 500 (≈ 1520 µM) |  | 72% and 55% | 2.0 mg/kg/injection |  | 28% and 18% | OD (optimum dose) (lymphoid leukemia L1210 [1]; [7]): 4.0 mg/kg/injection and 2.0 mg/kg/injection; T - C (average weight change of test group minus control) (lymphoid leukemia L1210 [1]; IP L1210, Q4D(1,5,9), at OD): -2.3 grams

— patent US4146622A, “Aziridinyl quinone anti-transplanted tumor agents” (priority 1977, dated 1979)
